In ChEMBL document CHEMBL4406853 (Eur J Med Chem, 2019):

Tests used:
[1] = target: T1, Kappa-type opioid receptor (Homo sapiens, UniProt P41145); test: Inhibition of kappa opioid receptor (unknown origin) assessed as increase in beta arrestin 2 recruitment relative to control
[2] = target: T1, Kappa-type opioid receptor; test: Inhibition of kappa opioid receptor (unknown origin) assessed as effect on ERK1 phosphorylation
[3] = target: T1, Kappa-type opioid receptor; test: Inhibition of kappa opioid receptor (unknown origin) assessed as effect on ERK1 phosphorylation relative to control
[4] = target: T1, Kappa-type opioid receptor; test: Inhibition of kappa opioid receptor (unknown origin) assessed as effect on ERK2 phosphorylation
[5] = target: T1, Kappa-type opioid receptor; test: Inhibition of kappa opioid receptor (unknown origin) assessed as increase in beta arrestin 2 recruitment
[6] = target: T1, Kappa-type opioid receptor; test: Inhibition of kappa opioid receptor (unknown origin) assessed as effect on ERK2 phosphorylation relative to control
[7] = target: T1, Kappa-type opioid receptor; test: Inhibition of kappa opioid receptor (unknown origin) by [35S]-GTPgammaS binding assay; assay type: functional

T1 sequence (P41145 whole entry): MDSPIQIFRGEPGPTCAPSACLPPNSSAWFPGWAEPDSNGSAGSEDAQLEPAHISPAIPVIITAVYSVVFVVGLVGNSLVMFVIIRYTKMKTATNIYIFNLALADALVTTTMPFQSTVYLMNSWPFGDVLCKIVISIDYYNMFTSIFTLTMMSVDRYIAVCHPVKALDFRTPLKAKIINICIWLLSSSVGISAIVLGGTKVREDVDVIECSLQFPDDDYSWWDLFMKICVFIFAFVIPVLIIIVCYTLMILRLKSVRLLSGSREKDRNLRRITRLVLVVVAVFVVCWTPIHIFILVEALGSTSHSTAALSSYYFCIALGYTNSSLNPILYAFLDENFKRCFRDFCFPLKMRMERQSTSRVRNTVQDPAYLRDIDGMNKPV

Work on Ic1ccc(CSc2nnc(-c3ccccn3)n2Cc2ccccn2)cc1 yielded an Emax [1] of 101%, an EC50 [2] of 107 nM and an Emax [3] of 109%. For the same compound, the EC50 [4] was 107 nM, the EC50 [5] was 10100 nM and the Emax [6] was 109%. It also gave an EC50 [7] of 75.5 nM.
